# Source: ChEMBL document CHEMBL1201862, “PubChem BioAssay data set” (2004)
# Activity calls are given as the source filed them.
# Experiments:
# [1] = target: T1, Alkaline phosphatase, tissue-nonspecific isozyme (Homo sapiens, UniProt P05186); test: TNAP enzyme inhibition by screening hits, dose response, selectivity assay for mouse IAP inhibitor project, biochemical, human TNAP, uHTS hits (AID 488906); assay type: functional
# T1 sequence (P05186 whole entry): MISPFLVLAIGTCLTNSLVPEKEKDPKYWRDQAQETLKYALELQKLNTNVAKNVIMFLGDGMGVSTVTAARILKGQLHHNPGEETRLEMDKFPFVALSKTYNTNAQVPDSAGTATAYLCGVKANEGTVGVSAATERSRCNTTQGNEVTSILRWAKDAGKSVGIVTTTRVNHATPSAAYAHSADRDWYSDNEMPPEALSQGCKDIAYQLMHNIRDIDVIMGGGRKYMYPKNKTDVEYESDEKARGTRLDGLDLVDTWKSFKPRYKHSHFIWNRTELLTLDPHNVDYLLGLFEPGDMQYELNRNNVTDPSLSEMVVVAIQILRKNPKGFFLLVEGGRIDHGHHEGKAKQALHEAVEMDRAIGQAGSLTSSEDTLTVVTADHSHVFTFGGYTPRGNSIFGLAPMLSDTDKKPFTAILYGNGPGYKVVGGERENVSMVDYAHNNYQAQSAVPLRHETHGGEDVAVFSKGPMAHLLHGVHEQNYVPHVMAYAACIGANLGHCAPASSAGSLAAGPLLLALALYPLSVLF
# Protein RecA = target: T2, Protein RecA (Mycobacterium tuberculosis, UniProt P9WHJ3); test: Fluorescence Cell-Free Homogeneous Dose Retest to Identify Inhibitors of RecA-Intein Splicing Activity. [Related pubchem assays (depositor defined):AID2097, AID2223, AID489010, AID492950]; assay type: functional
# T2 sequence (P9WHJ3 whole entry): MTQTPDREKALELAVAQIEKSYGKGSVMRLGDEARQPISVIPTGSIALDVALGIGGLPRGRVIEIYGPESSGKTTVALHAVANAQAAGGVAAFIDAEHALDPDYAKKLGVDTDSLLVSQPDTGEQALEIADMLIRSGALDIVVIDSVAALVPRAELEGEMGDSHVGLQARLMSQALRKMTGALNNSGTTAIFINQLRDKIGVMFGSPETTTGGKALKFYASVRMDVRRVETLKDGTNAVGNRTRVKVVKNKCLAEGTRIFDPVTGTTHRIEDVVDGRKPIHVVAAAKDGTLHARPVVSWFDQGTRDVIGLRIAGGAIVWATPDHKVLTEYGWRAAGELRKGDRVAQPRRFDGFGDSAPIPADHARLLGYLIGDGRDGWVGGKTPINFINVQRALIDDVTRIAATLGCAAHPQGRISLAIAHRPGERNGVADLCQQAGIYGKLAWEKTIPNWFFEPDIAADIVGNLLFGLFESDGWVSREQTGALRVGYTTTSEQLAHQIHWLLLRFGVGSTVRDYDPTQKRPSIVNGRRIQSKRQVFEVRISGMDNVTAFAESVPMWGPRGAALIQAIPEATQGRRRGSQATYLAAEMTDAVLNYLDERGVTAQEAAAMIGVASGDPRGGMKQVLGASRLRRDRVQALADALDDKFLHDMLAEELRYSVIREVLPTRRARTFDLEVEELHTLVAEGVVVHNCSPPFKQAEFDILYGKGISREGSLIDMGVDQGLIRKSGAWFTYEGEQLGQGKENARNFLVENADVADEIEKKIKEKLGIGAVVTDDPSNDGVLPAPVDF
# [2] = target: Intestinal-type alkaline phosphatase (Homo sapiens, UniProt P09923); test: activation of human intestinal alkaline phosphatase – biochemical, dose response (AID 488873); assay type: functional
# Sequence of Intestinal-type alkaline phosphatase (Homo sapiens, UniProt P09923) (P09923 whole entry): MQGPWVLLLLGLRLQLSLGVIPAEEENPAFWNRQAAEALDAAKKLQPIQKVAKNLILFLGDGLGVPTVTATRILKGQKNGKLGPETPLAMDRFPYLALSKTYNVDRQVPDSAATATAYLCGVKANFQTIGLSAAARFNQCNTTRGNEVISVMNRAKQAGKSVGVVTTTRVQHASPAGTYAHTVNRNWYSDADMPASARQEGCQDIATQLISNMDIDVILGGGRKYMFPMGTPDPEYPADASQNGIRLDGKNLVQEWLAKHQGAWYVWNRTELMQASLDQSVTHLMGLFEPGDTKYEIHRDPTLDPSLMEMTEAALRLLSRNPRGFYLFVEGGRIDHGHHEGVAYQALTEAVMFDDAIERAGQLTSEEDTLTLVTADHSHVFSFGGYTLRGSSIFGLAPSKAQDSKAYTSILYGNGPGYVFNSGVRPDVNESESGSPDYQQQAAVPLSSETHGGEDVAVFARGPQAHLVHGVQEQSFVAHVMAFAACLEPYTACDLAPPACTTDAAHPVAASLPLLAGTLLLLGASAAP
# [3] = target: T3, Replicative DNA helicase DnaB (Mycobacterium tuberculosis, UniProt P9WMR3); test: DnaB intein splicing inhibitors, dose response, biochemical, cell-free fluorescence (AID 449749); assay type: functional
# T3 sequence (P9WMR3 whole entry): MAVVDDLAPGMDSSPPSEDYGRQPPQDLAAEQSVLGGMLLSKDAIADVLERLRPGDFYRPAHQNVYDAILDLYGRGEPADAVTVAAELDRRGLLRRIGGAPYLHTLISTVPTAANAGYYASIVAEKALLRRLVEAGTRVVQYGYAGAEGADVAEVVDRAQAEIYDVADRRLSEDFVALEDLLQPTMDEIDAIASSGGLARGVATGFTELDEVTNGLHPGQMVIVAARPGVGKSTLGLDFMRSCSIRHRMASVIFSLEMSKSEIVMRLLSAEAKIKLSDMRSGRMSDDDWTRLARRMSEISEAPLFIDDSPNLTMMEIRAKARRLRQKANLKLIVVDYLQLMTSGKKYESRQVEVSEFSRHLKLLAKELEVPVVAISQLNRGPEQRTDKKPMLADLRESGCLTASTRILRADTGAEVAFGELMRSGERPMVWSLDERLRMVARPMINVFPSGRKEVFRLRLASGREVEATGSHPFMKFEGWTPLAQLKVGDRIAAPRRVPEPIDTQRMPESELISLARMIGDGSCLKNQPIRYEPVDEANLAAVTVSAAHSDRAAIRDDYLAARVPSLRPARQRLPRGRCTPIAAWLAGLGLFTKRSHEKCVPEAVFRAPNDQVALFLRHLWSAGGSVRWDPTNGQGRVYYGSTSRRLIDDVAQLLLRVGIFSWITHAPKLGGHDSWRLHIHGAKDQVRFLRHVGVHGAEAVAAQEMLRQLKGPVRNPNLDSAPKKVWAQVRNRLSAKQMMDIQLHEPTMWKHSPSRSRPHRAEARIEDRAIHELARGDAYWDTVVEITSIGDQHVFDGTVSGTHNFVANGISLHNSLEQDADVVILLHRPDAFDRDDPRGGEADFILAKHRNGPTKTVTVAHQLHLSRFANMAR
# [4] = target: T4, Rac GTPase-activating protein 1 (Homo sapiens, UniProt Q9H0H5); test: blockers of MgcRacGAP-driven Rac1 GTP hydrolysis – biochemical, ADP Hunter fluorescence, primary and confirmatory, confirmation (AID 624330); assay type: functional
# T4 sequence (Q9H0H5 whole entry): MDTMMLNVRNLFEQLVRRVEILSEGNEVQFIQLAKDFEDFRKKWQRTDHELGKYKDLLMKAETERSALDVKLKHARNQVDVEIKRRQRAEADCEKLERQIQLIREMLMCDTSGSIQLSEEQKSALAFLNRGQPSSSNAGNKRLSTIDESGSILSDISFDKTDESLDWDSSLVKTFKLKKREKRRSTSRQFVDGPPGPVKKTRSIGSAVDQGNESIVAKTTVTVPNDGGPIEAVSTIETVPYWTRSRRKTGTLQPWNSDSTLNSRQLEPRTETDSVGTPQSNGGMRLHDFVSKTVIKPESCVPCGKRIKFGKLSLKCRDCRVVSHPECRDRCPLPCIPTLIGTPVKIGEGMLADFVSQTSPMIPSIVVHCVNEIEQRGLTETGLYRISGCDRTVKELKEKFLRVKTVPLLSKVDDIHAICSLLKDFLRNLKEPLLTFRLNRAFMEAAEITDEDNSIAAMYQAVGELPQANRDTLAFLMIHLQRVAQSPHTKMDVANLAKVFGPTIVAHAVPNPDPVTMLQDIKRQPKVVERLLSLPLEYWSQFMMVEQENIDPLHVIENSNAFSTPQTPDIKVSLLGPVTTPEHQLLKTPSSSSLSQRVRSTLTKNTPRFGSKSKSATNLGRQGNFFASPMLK
# [5] = target: Intestinal-type alkaline phosphatase (Mus musculus, UniProt P24822); test: PubChem AID 488785; assay type: functional
# Sequence of Intestinal-type alkaline phosphatase (Mus musculus, UniProt P24822) (P24822 whole entry): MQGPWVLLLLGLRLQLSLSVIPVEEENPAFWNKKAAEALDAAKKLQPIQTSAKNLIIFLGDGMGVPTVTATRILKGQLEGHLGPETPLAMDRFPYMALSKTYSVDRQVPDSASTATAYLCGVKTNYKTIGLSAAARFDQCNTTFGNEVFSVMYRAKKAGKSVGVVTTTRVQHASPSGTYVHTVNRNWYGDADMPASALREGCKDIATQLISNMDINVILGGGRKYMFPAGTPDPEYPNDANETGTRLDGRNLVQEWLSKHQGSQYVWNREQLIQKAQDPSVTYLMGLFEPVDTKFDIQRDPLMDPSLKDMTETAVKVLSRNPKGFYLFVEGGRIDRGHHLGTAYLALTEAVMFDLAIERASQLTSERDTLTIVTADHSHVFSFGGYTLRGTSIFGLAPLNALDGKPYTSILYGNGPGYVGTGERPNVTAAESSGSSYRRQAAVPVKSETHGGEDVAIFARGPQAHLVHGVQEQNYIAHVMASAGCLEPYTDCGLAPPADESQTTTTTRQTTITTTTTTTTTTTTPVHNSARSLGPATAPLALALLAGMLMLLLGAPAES
# Procathepsin L = Procathepsin L (Homo sapiens, UniProt P07711)
# Sequence of Procathepsin L (P07711 whole entry): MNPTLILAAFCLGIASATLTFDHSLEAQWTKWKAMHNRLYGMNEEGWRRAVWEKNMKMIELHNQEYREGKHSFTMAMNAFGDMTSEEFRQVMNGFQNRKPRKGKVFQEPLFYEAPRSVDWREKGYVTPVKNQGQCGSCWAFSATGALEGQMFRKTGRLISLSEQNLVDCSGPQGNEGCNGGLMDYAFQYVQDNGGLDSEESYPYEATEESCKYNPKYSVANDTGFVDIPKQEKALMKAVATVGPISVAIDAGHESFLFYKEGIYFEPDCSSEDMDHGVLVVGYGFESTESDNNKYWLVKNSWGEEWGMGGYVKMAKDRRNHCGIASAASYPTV
# Aspartyl aminopeptidase = target: T5, Aspartyl aminopeptidase (Plasmodium falciparum 3D7, UniProt Q8I2J3)
# T5 sequence (Q8I2J3 whole entry): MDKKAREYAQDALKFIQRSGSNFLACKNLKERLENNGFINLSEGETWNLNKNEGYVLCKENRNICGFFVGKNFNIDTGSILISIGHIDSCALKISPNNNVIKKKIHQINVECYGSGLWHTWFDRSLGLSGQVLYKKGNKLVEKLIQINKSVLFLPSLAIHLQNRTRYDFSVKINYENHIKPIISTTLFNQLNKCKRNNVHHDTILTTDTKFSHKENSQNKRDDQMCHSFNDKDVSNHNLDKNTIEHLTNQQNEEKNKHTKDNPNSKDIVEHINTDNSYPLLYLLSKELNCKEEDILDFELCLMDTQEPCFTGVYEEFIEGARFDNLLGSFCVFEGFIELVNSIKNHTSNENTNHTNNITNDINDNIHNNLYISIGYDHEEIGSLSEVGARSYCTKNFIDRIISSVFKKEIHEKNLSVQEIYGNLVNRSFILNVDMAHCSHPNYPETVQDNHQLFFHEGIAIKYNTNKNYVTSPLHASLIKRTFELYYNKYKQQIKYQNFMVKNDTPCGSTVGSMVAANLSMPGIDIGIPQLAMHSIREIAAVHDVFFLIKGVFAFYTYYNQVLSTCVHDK
structure (smiles),measurement,setting,value
Oc1cc(O)c2c(c1)O[C@H](c1ccc(O)c(O)c1)[C@H](O)C2 [(-)-EPICATECHIN],IC50,[1],0.407 µM (active)
same,EC50,Protein RecA,> 380 µM (inconclusive)
same,EC50,[2],> 100 µM (inactive)
same,AC50,[3],> 380 µM (inactive)
same,IC50,[4],206 µM (active)
same,IC50,[5],1.36 µM (active)
same,IC50,Procathepsin L,> 59.6 µM (not active)
same,IC50,Aspartyl aminopeptidase,1.38 µM (active)
